Experimental data as given in patent US20160121003A1, “METHODS FOR DIAGNOSING AND […] OF LEWY BODY DEMENTIA BY ASSESSING DOPAMINE T[…]” (Alseres Pharmaceuticals, Inc., priority 2007, published 2016).

Key:
dopamine transporter [1] = target: T1, dopamine transporter (Homo sapiens, UniProt Q01959); assay: SPECT imaging of striatal binding potential, Lewy Body Dementia subjects versus controls; assay type: in vivo; design: from tissue; host or cells: human brain striatum in vivo (Lewy Body Dementia subjects and controls)
dopamine transporter [2] = target: T1, dopamine transporter; assay: Dynamic SPECT time-activity study in Lewy Body Dementia and control subjects; assay type: in vivo; design: from tissue; host or cells: human brain striatum in vivo (Lewy Body Dementia subjects and controls)
From the text: The following example summarizes single photon emission computed tomographic (SPECT) image acquisition, analysis methods for Lewy Body Dementia research participants and healthy controls participating in an ^123I-altropane SPECT imaging study. The experiment is an open label study evaluating time-activity curves and striatal dopamine transporter occupancy over the first hour post bolus injection of ^123I-altropane using temporally well-resolved dynamic SPECT in Lewy Body Dementia subjects and similarly aged healthy control subjects. In addition, for the Lewy Body Dementia subjects, a second injection and scan is performed on each subject on a separate test day to evaluate the test/retest reproducibility data for both visual and quantitative analyses.
Fifteen idiopathic Lewy Body Dementia subjects are recruited through local advertising and word-of-mouth for enrollment in the study. All fifteen subjects complete two separate injection and SPECT scan sessions with approximately […] (8 mCi) of ^123I-altropane. Subjects undergo assessment by a neurology specialist.
Twelve healthy controls subjects are recruited for participation in a single scan session with ^123I-altropane using the identical SPECT image acquisition protocol as the Lewy Body Dementia subjects. Healthy subjects are evaluated by a neurology specialist to confirm the absence of neurologic illness.
SPECT scans are acquired for 60 min following the intravenous injection with […] (8.0 mCi) of ^123I altropane. A series of dynamic SPECT scans are obtained as five scans at 6 minutes per acquisition followed by three scans at 10 minutes per acquisition. The subject remains in the camera for the duration of the acquisition. Each SPECT study is acquired on a Philips PRISM 3000XP triple-headed SPECT camera (Cleveland, Ohio, USA) fitted with fan-beam collimators. Each head rotates 360 degrees, sampling every 3 degrees for a total of 120 raw projection images per head. Projection data are collected in a 128×128 matrix within a symmetric energy window centered at 159 kEv (+/−10%).
Data are re-constructed using filtered back projection and a simple ramp filter followed by a post hoc (3-D) standardized low pass filter. Attenuation correction is performed applying a Chang 0 correction and a mu of 0.11 cm^−1 using a standard or custom software. Regions of interest (ROIs) are placed in the 3-head data scans with individual ROI sampling of the left and right caudate and putamen and an occipital background region. […] The mean striatal SBR scores are calculated as the mean of the left and right caudate and putamen SBR scores. […]
The time-activity data for mean striatal count densities and occipital background for each of the 8 images acquired in the 60 minutes post injection sampling period are plotted to permit visual interrogation of the uptake and washout characteristics of ^123I-altropane in Lew Body Dementia and controls. […] The peak SBR is assessed for each subject for data acquired using 1, 2, and all 3 heads of imaging data. […]

[3] = Safety and tolerability of imaging agent in patients; assay type: in vivo, human
dopamine transporter [4] = target: T2, dopamine transporter (Macaca fascicularis, UniProt Q9GJT6); settings: monkeys, in vivo and in vitro; density within range reported for the dopamine transporter; cited from earlier work
T2 construct: host or cells: monkey striatum

dopamine transporter [5] = target: T1, dopamine transporter; settings: cited from earlier work
dopamine transporter [6] = target: T1, dopamine transporter; settings: in vitro; cited from earlier work

T1 sequence (Q01959 whole entry): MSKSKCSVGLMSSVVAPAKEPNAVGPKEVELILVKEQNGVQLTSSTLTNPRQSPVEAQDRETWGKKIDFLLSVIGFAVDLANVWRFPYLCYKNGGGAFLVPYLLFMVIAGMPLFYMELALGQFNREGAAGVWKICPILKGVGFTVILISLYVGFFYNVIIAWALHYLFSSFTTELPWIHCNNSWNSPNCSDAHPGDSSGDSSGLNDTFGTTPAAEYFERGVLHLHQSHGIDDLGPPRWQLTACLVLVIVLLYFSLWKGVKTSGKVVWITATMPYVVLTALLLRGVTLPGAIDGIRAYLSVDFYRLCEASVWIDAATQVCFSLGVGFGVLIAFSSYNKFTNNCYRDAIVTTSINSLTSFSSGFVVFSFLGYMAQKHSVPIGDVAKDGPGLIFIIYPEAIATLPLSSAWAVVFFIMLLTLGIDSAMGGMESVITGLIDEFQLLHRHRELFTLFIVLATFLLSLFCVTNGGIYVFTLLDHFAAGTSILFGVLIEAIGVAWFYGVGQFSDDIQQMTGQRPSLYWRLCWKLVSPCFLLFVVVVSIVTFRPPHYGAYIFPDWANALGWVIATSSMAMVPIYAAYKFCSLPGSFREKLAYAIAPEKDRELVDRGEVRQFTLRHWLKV
T2 sequence (Q9GJT6 whole entry): as the sequence (Q01959 whole entry) above, with V24M, I137V, P194S, S198G, D200N, S201G, S202P counted along it

| Compound | striatal binding potential versus expected levels for age matched normal individuals (dopamine transporter [1]; Example 1, six Lewy Body Dementia subjects, i.v., SPECT) | uptake in striatum, Lewy Body Dementia subjects versus control adults (dopamine transporter [1]; Example 3) | binding potential, Lewy Body Dementia group versus control group (dopamine transporter [1]; Example 3, 8 LBD and 16 control adults, one-tailed t-test) | test-retest reproducibility of total striatal binding (dopamine transporter [2]; 15 LBD subjects, about 30 minutes commencing 15 minutes after injection) | time post injection by which washout rates from striatum and occipital background are similar (stable striatal binding ratio) (dopamine transporter [2]; bolus injection) | time of peak striatal count densities post injection (dopamine transporter [2]; bolus injection, controls and Lewy Body Dementia subjects) | time of peak SBR post injection (dopamine transporter [2]; one and two imaging head reconstructions) | safety and tolerability [3] | regional binding in brain (dopamine transporter [4]) | selectivity for dopamine transporter compared to serotonin transporter (dopamine transporter [5]) | elimination from the brain (dopamine transporter [2]; most subjects) | binding site on the dopamine transporter (dopamine transporter [6]) |
| --- | --- | --- | --- | --- | --- | --- | --- | --- | --- | --- | --- | --- |
| COC(=O)[C@H]1[C@@H](c2ccc(F)cc2)C[C@@H]2CC[C@H]1N2C/C=C/[123I] [^123I-Altropane, E-2β-carbomethoxy-3β-(4-fluorophenyl)-N-1(1-iodoprop-1-en-3) nortropane] | reduced binding potential | lower | significantly lesser binding potential | demonstrates reproducibility | 20 to 30 min | 10 min | ≥ 15 min | safe and well tolerated | – | – | – | – |
| COC(=O)C1C(c2ccc(F)cc2)CC2CCC1N2C/C=C/I (stereo not drawn) [Altropane, 2β-carbomethoxy-3β-(4′-flurophenyl)-N-(3-iodo-E-allyl) nortropane] | – | – | – | – | – | – | – | – | preferentially binds to dopamine rich areas of the striatum | high selectivity | rapidly eliminate | binds to a specific high-affinity site |
